The molecules below were run against Carbonic anhydrase 2 (Homo sapiens, UniProt P00918) (assay: Inhibition of carbonic anhydrase-2 in […] assessed as reduction in H+ release using CO2 as substrate by bromine thymol blue indicator based assay).

IC50 | Structure (SMILES)
Not Active | O=C(CSc1nnc(Nc2ccccc2)s1)N/N=C/c1ccc(-c2ccc(Cl)cc2[N+](=O)[O-])o1
Not Active | O=C(CSc1nnc(Nc2ccccc2)s1)N/N=C/c1ccc(-c2ccc([N+](=O)[O-])cc2)o1
Not Active | O=C(CSc1nnc(Nc2ccccc2)s1)N/N=C/c1ccc(-c2ccc(Cl)c(Cl)c2)o1

Reference: ChEMBL document CHEMBL4033689, “Potential inhibitors of human carbonic anhydrase isozymes I and II: Design, synthesis and docking studies of new 1,3,4-thiadiazole derivatives” (Bioorg Med Chem, 2017)
